Structures can show the parent of a compound that is named as a salt.
What was measured:
Assay type in all cases: cell-based
HBV = assay: Single agent anti-HBV activity, HBV DNA in supernatant by quantitative PCR, HepG2.2.15 cells; conditions: Hepatitis B virus, 192 h, day 8
Method: (§1) Cell line: HepG2.2.15 cells are constructed and provided by WuXi AppTec. The cell culture medium is DMEM/F12 medium supplemented with 2% fetal bovine serum, 2 mM glutamine, 1×non-essential amino acids, 100 U/mL penicillin and 100 µg/mL streptomycin.
(§2) 2.1.1 On the first day, HepG2.2.15 cells were seeded into a 96-well cell culture plate at a density of 60,000 cells/well, and then the cells were cultured overnight at 5% CO2 and 37° C. On the second day, the compound 1 and the compound of formula (IIb) and the compound of formula (IIIb) were diluted and added to a 96-well plate. Each combination was a three-fold plate. The cells were cultured under 5% CO2 and 37° C. for 3 days. On the 5th day, a new culture medium containing the compound was replaced, and the supernatant was collected on the 8th day. The HBsAg in the supernatant was detected by ELISA, and the DNA in the supernatant was extracted at the same time, and the content of HBV DNA in the supernatant was detected by quantitative PCR. After collecting the cell supernatant, add CellTiter-Glo to detect cell viability.

HBsAg = assay: Single agent anti-HBV activity, HBsAg in supernatant by ELISA, HepG2.2.15 cells; conditions: Hepatitis B virus, HepG2.2.15, 192 h, read-out: HBsAg EC50
Method: as §1, §2

[1] = Single agent cytotoxicity, CellTiter-Glo; conditions: human, HepG2.2.15 cells
Method: as §1, §2

HepG2.2.15 cells [2] = assay: Cytotoxicity of the compounds in combination, CellTiter Glo
Method: as §1
2.2.1 On the first day, HepG2.2.15 cells were seeded into a 96-well cell culture plate at a density of 60,000 cells/well, and then the cells were cultured overnight at 5% CO2 and 37° C. On the second day, different concentrations of compounds were added to treat the cells. Compounds were diluted in gradients, 7×7 concentration combinations, and 3 replicate plates were tested in parallel. The compound concentration tested for joint activity is based on the EC50 value of each compound. The 7 concentration gradients are approximately: 2×, 1×, ½×, ¼×, ⅛×, 1/16× and 1/32×EC50. The compound concentration of the combined activity test experiment is shown in Table 8, and the combination drug arrangement is shown in Table 9. On the 5th day, replace the fresh culture medium containing the compound. On the 8th day, the culture supernatant was collected, DNA was extracted, and the content of HBV DNA was detected by quantitative PCR. At the same time, CellTiter Glo reagent was used to detect cell viability and MacSynergy software was used to analyze the combined effect of the two drugs.

HepG2.2.15 cells [3] = assay: CellTiter-Glo cytotoxicity of compound 1 / TDF combination
Method: 1.1 Day 1, HepG2.2.15 cells were seeded into a 96-well cell culture plate at a density of 40,000 cells/well, and then the cells were cultured overnight at 5% CO2 and 37° C.
1.2 Day 2, the compound 1 and TDF were combined with 7 different concentrations (selected about 8×, 4×, 2×, 1×, 0.5×, 0.25×, 0.125×EC50 concentration gradient) for orthogonal proportioning, and added to 96-well plate, each combination is 3 double plates, and the final concentration of DMSO is 0.5%.
1.3 Day 5, the cell supernatant was discarded, a fresh medium containing the compound was added, and the cells were cultured under 5% CO2, 37° C. for 3 days. On the 8th day, the supernatant from the cell plate treated with the compound was extracted according to the QIAamp 96 DNA Blood Kit (12) instruction.
MacSynegy software (Prichard et al., 1990) was used to process the HBV DNA copy number test data and analyze the effect parameters of compound 1 and TDF in combination. The CellTiter-Glo kit was used to detect the cytotoxicity of the compounds to HepG2.2.15 cells. According to the kit instructions, use a multifunctional microplate reader to detect the chemiluminescence intensity (RLU) of each cell well.

SMILES: COCCCOc1cc2c(cc1OC)-c1cc(=O)c(C(=O)O)cn1[C@H](c1cccs1)O2 [Compound of formula (IIIb)]
- EC50 (HBV): 0.78 nM
- EC50 (HBsAg): 0.91 nM
- CC50 at 6 days [1]: > 50 nM
- average cell viability percentage (HepG2.2.15 cells [2]; Compound 1 0 nM + formula (IIIb) 0.01875 nM): 103.45%
- average cell viability percentage (HepG2.2.15 cells [2]; Compound 1 0 nM + formula (IIIb) 0.0375 nM): 103.81%
- average cell viability percentage (HepG2.2.15 cells [2]; Compound 1 0 nM + formula (IIIb) 0.075 nM): 105.64%
- average cell viability percentage (HepG2.2.15 cells [2]; Compound 1 0 nM + formula (IIIb) 0.15 nM): 105.68%
- average cell viability percentage (HepG2.2.15 cells [2]; Compound 1 0 nM + formula (IIIb) 0.3 nM): 103.14%
- average cell viability percentage (HepG2.2.15 cells [2]; Compound 1 0 nM + formula (IIIb) 0.6 nM): 103.50%
- average cell viability percentage (HepG2.2.15 cells [2]; Compound 1 0 nM + formula (IIIb) 1.2 nM): 112.02%

SMILES: COCCCOc1cc2c(cc1OC)-c1cc(=O)c(C(=O)O)cn1[C@H](C(C)(C)C)CO2 [Compound of formula (IIb)]
- EC50 (HBV): 1.52 nM
- EC50 (HBsAg): 4.9 nM
- CC50 at 6 days [1]: > 1000 nM
- average cell viability percentage (HepG2.2.15 cells [2]; Compound 1 0 nM + formula (IIb) 0.09375 nM): 101.23%
- average cell viability percentage (HepG2.2.15 cells [2]; Compound 1 0 nM + formula (IIb) 0.1875 nM): 101.98%
- average cell viability percentage (HepG2.2.15 cells [2]; Compound 1 0 nM + formula (IIb) 0.375 nM): 102.39%
- average cell viability percentage (HepG2.2.15 cells [2]; Compound 1 0 nM + formula (IIb) 0.75 nM): 105.36%
- average cell viability percentage (HepG2.2.15 cells [2]; Compound 1 0 nM + formula (IIb) 1.5 nM): 104.15%
- average cell viability percentage (HepG2.2.15 cells [2]; Compound 1 0 nM + formula (IIb) 3 nM): 102.61%
- average cell viability percentage (HepG2.2.15 cells [2]; Compound 1 0 nM + formula (IIb) 6 nM): 111.27%

SMILES: CC(C)OC(=O)OCOP(=O)(CO[C@H](C)Cn1cnc2c(N)ncnc21)OCOC(=O)OC(C)C [TDF, tenofovir disoproxil fumarate, reference compound]
- average cell viability percentage (HepG2.2.15 cells [3]; Compound 1 0 nM + TDF 1 nM): 103.1%
- average cell viability percentage (HepG2.2.15 cells [3]; Compound 1 0 nM + TDF 2 nM): 101.1%
- average cell viability percentage (HepG2.2.15 cells [3]; Compound 1 0 nM + TDF 4 nM): 103.8%
- average cell viability percentage (HepG2.2.15 cells [3]; Compound 1 0 nM + TDF 8 nM): 116.6%
- average cell viability percentage (HepG2.2.15 cells [3]; Compound 1 0 nM + TDF 16 nM): 111.4%
- average cell viability percentage (HepG2.2.15 cells [3]; Compound 1 0 nM + TDF 32 nM): 111 ± 7.3%
- average cell viability percentage (HepG2.2.15 cells [3]; Compound 1 0 nM + TDF 64 nM): 127 ± 14%
